Experimental data as given in US9273057B2 (Bristol-Myers Squibb Company, priority 2012, dated 2016).
Where a name gives a salt, the structure may show the parent alone.

Target: CK2A1 (CK2α/β) (Homo sapiens, UniProt P68400)
Experiment: CK2 kinase assay, CK2A1 (CK2α/β)
Format: biochemical
Settings: Table A; read-out: CK2A1 (CK2α/β) (IC50)

CK2A1 (CK2α/β), sequence (P68400 whole entry, species assumed): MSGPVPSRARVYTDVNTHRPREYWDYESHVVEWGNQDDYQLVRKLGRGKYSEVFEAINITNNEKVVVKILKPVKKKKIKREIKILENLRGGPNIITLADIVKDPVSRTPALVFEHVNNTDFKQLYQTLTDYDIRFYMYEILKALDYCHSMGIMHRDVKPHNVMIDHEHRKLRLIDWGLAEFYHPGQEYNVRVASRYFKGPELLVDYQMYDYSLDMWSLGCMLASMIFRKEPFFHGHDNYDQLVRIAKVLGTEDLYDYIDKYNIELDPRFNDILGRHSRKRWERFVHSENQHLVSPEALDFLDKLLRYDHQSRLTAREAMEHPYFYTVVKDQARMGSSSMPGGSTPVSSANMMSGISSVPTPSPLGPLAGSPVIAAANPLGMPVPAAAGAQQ
CK2A1 (CK2α/β), sequence (P67870 whole entry partner, species assumed): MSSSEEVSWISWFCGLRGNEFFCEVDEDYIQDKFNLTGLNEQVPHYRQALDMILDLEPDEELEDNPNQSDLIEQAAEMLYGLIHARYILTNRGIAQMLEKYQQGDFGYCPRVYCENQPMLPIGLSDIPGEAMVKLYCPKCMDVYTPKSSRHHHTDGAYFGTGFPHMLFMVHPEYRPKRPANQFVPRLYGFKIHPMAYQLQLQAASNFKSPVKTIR

Row | Compound | IC50 [nM]
1 | CCNc1nc(Nc2cc(C#N)cc(N3CC[C@@H](NC(=O)OC)[C@H](OC(=O)[C@@H](N)Cc4cnc[nH]4)C3)c2Cl)nn2c(C#N)cnc12 [Example 809, (S)-(3R,4R)-1-(2-chloro-5-cyano-3-((7-cyano-4-(ethylamino)imidazo[2,1-f][1,2,4]triazin-2-yl)amino)phenyl)-4-((methoxycarbonyl)amino)piperidin-3-yl 2-amino-3-(1H-imidazol-5-yl)propanoate dihydrochloride] | 1
2 | CCNc1nc(Nc2cc(C#N)cc(N3CC[C@@H](NC(=O)OC)[C@H](OC(=O)[C@@H](N)[C@@H](C)O)C3)c2Cl)nn2c(C#N)cnc12 [Example 810, (2S,3R)-(3R,4R)-1-(2-chloro-5-cyano-3-((7-cyano-4-(ethylamino)imidazo[2,1-f][1,2,4]triazin-2-yl)amino)phenyl)-4-((methoxycarbonyl)amino)piperidin-3-yl 2-amino-3-hydroxybutanoate hydrochloride] | 3.82
3 | CCNc1nc(Nc2cc(C#N)cc(N3CC[C@@H](NC(=O)OC)[C@H](OC(=O)[C@@H](N)CCCN)C3)c2Cl)nn2c(C#N)cnc12 [Example 811, (S)-(3R,4R)-1-(2-chloro-5-cyano-3-((7-cyano-4-(ethylamino)imidazo[2,1-f][1,2,4]triazin-2-yl)amino)phenyl)-4-((methoxycarbonyl)amino)piperidin-3-yl 2,5-diaminopentanoate dihydrochloride] | 1.88
4 | CCNc1nc(Nc2cc(C#N)cc(N3CC[C@@H](NC(=O)OC)[C@H](OC(=O)[C@@H](N)CCN)C3)c2Cl)nn2c(C#N)cnc12 [Example 812, (S)-(3R,4R)-1-(2-chloro-5-cyano-3-((7-cyano-4-(ethylamino)imidazo[2,1-f][1,2,4]triazin-2-yl)amino)phenyl)-4-((methoxycarbonyl)amino)piperidin-3-yl 2,4-diaminobutanoate dihydrochloride] | 4.61
5 | CCNc1nc(Nc2cc(C#N)cc(N3CC[C@@H](NC(=O)OC)[C@H](OC(=O)[C@@H]4CCCN4)C3)c2Cl)nn2c(C#N)cnc12 [Example 813, (S)-(3R,4R)-1-(2-chloro-5-cyano-3-((7-cyano-4-(ethylamino)imidazo[2,1-f][1,2,4]triazin-2-yl)amino)phenyl)-4-((methoxycarbonyl)amino)piperidin-3-yl pyrrolidine-2-carboxylate hydrochloride] | 4.48
6 | CCNc1nc(Nc2cc(C#N)cc(N3CC[C@@H](NC(=O)OC)[C@H](OC(=O)CC[C@H](N)C(=O)OC)C3)c2Cl)nn2c(C#N)cnc12 [Example 814, (S)-5-((3R,4R)-1-(2-chloro-5-cyano-3-((7-cyano-4-(ethylamino)imidazo[2,1-f][1,2,4]triazin-2-yl)amino)phenyl)-4-((methoxycarbonyl)amino)piperidin-3-yl) 1-methyl 2-aminopentanedioate hydrochloride] | 24.9
7 | CCNc1nc(Nc2cc(C#N)cc(N3CC[C@@H](NC(=O)OC)[C@H](OC(=O)C[C@H](N)C(=O)OC(C)(C)C)C3)c2Cl)nn2c(C#N)cnc12 [Example 815, (S)-1-tert-butyl 4-((3R,4R)-1-(2-chloro-5-cyano-3-((7-cyano-4-(ethylamino)imidazo[2,1-f][1,2,4]triazin-2-yl)amino)phenyl)-4-((methoxycarbonyl)amino)piperidin-3-yl) 2-aminosuccinate hydrochloride] | 18.7
8 | CCNc1nc(Nc2cc(C#N)cc(N3CC[C@@H](NC(=O)OC)[C@H](OC(=O)CCCCN)C3)c2Cl)nn2c(C#N)cnc12 [Example 816, (3R,4R)-1-(2-chloro-5-cyano-3-((7-cyano-4-(ethylamino)imidazo[2,1-f][1,2,4]triazin-2-yl)amino)phenyl)-4-((methoxycarbonyl)amino)piperidin-3-yl 5-aminopentanoate hydrochloride] | 5.2
9 | CCNc1nc(Nc2cc(C#N)cc(N3CC[C@@H](NC(=O)OC)[C@H](OC(=O)CCCN)C3)c2Cl)nn2c(C#N)cnc12 [Example 817, (3R,4R)-1-(2-chloro-5-cyano-3-((7-cyano-4-(ethylamino)imidazo[2,1-f][1,2,4]triazin-2-yl)amino)phenyl)-4-((methoxycarbonyl)amino)piperidin-3-yl 4-aminobutanonate hydrochloride] | 5.05
10 | CCNc1nc(Nc2cc(C#N)cc(N3CC[C@@H](NC(=O)OC)[C@H](OC(=O)[C@H](N)CC(N)=O)C3)c2Cl)nn2c(C#N)cnc12 [Example 818, (R)-(3R,4R)-1-(2-chloro-5-cyano-3-((7-cyano-4-(ethylamino)imidazo[2,1-f][1,2,4]triazin-2-yl)amino)phenyl)-4-((methoxycarbonyl)amino)piperidin-3-yl 2,4-diamino-4-oxobutanoate hydrochloride] | 2.49
11 | CCNc1nc(Nc2cc(C#N)cc(N3CC[C@@H](NC(=O)OC)[C@H](OC(=O)C[C@@H](N)CC(C)C)C3)c2Cl)nn2c(C#N)cnc12 [Example 819, (S)-(3R,4R)-1-(2-chloro-5-cyano-3-((7-cyano-4-(ethylamino)imidazo[2,1-f][1,2,4]triazin-2-yl)amino)phenyl)-4-((methoxycarbonyl)amino)piperidin-3-yl 3-amino-5-methylhexanoate hydrochloride] | 5.81
12 | CCNc1nc(Nc2cc(C#N)cc(N3CC[C@@H](NC(=O)OC)[C@H](OC(=O)C[C@H]4CC[C@H](N)CC4)C3)c2Cl)nn2c(C#N)cnc12 [Example 820, (3R,4R)-1-(2-chloro-5-cyano-3-((7-cyano-4-(ethylamino)imidazo[2,1-f][1,2,4]triazin-2-yl)amino)phenyl)-4-((methoxycarbonyl)amino)piperidin-3-yl 2-((1r,4R)-4-aminocyclohexyl)acetate hydrochloride] | 5.96
13 | CCNc1nc(Nc2cc(C#N)cc(N3CC[C@@H](NC(=O)OC)[C@H](OC(=O)CNC(=O)[C@H](C)N)C3)c2Cl)nn2c(C#N)cnc12 [Example 821, (3R,4R)-1-(2-chloro-5-cyano-3-((7-cyano-4-(ethylamino)imidazo[2,1-f][1,2,4]triazin-2-yl)amino)phenyl)-4-((methoxycarbonyl)amino)piperidin-3-yl 2-((S)-2-aminopropanamido)acetate hydrochloride] | 2.72
14 | CCNc1nc(Nc2cc(C#N)cc(N3CC[C@@H](NC(=O)OC)[C@H](OC(=O)[C@@H](NC(=O)[C@@H](N)CCCCN)C(C)C)C3)c2Cl)nn2c(C#N)cnc12 [Example 822, (S)-(3R,4R)-1-(2-chloro-5-cyano-3-((7-cyano-4-(ethylamino)imidazo[2,1-f][1,2,4]triazin-2-yl)amino)phenyl)-4-((methoxycarbonyl)amino)piperidin-3-yl 2-((S)-2,6-diaminohexanamido)-3-methylbutanoate dihydrochloride] | 1.74
15 | CCNc1nc(Nc2cc(C#N)cc(N3CC[C@@H](NC(=O)OC)[C@H](OC(=O)[C@@H](NC(=O)[C@@H](N)CCCNC(=N)N)C(C)C)C3)c2Cl)nn2c(C#N)cnc12 [Example 823, (S)-(3R,4R)-1-(2-chloro-5-cyano-3-((7-cyano-4-(ethylamino)imidazo[2,1-f][1,2,4]triazin-2-yl)amino)phenyl)-4-((methoxycarbonyl)amino)piperidin-3-yl 2-((S)-2-amino-5-guanidinopentanamide)-3-methylbutanoate trihydrochloride] | 2
16 | CCNc1nc(Nc2ccc3c(c2)c(C#N)cn3C2CCN([C@H]3COC[C@@H]3O)CC2)nn2c(C#N)cnc12 [Example 826, 2-((3-cyano-1-(1-((3S,4R)-4-hydroxytetrahydrofuran-3-yl)piperidin-4-yl)-1H-indol-5-yl)amino)-4-(ethylamino)imidazo[2,1-f][1,2,4]triazine-7-carbonitrile] | 0.32
17 | CCNc1nc(Nc2ccc3c(c2)c(C#N)cn3C2CCN([C@H]3COC[C@@H]3O)CC2)nn2c(C#N)cnc12 [Example 827, 2-((3-cyano-1-(1-((3S,4R)-4-hydroxytetrahydrofuran-3-yl)piperidin-4-yl)-1H-indol-5-yl)amino)-4-(ethylamino)imidazo[2,1-f][1,2,4]triazine-7-carbonitrile] | 0.75
18 | CCNc1nc(Nc2ccc3c(c2)c(C#N)cn3C2CCN([C@H]3CS(=O)(=O)C[C@@H]3O)CC2)nn2c(C#N)cnc12 [Example 828, 2-((3-cyano-1-(1-((3R,4R)-4-hydroxy-1,1-dioxidotetrahydrothiophen-3-yl)piperidin-4-yl)-1H-indol-5-yl)amino)-4-(ethylamino)imidazo[2,1-f][1,2,4]triazine-7-carbonitrile] | 0.36
19 | CCNc1nc(Nc2ccc3c(c2)c(C#N)cn3C2CCN([C@H]3CS(=O)(=O)C[C@H]3O)CC2)nn2c(C#N)cnc12 [Example 829, 2-((3-cyano-1-(1-((3R,4S)-4-hydroxy-1,1-dioxidotetrahydrothiophen-3-yl)piperidin-4-yl)-1H-indol-5-yl)amino)-4-(ethylamino)imidazo[2,1-f][1,2,4]triazine-7-carbonitrile] | 0.72
20 | CCNc1nc(Nc2ccc3c(c2)c(C#N)cn3C2CCN(C[C@@H](O)CN3CCOCC3)CC2)nn2c(C#N)cnc12 [Example 830, (R)-2-((3-cyano-1-(1-(2-hydroxy-3-morpholinopropyl)piperidin-4-yl)-1H-indol-5-yl)amino)-4-(ethylamino)imidazo[2,1-f][1,2,4]triazine-7-carbonitrile] | 0.35
21 | CCNc1nc(Nc2ccc3c(c2)c(C#N)cn3C2CCN(C3CN(C(=O)OC(C)(C)C)C3)CC2)nn2c(C#N)cnc12 [Example 831, tert-butyl 3-(4-(3-cyano-5-((7-cyano-4-(ethylamino)imidazo[2,1-f][1,2,4]triazin-2-yl)amino)-1H-indol-1-yl)piperidin-1-yl)azetidine-1-carboxylate] | 0.71
22 | CCNc1nc(Nc2ccc3c(c2)c(C#N)cn3C2CCN(C3CNC3)CC2)nn2c(C#N)cnc12 [Example 832, 2-((1-(1-(azetidin-3-yl)piperidin-4-yl)-3-cyano-1H-indol-5-yl)amino)-4-(ethylamino)imidazo[2,1-f][1,2,4]triazine-7-carbonitrile] | 0.54
23 | CCNc1nc(Nc2ccc3c(c2)c(C#N)cn3C2CCN(C3CN(C[C@@H](C)O)C3)CC2)nn2c(C#N)cnc12 [Example 833, (R)-2-((3-cyano-1-(1-(1-(2-hydroxypropyl)azetidin-3-yl)piperidin-4-yl)-1H-indol-5-yl)amino)-4-(ethylamino)imidazo[2,1-f][1,2,4]triazine-7-carbonitrile] | 1.81
